This passage reports MIC results from patent US11180504B2 (ORCHID PHARMA LTD., priority 2016, dated 2021).

As a reminder, the MIC is the smallest concentration in the dilution series that meets the test's criterion for growth inhibition.

Values after ≈ are worked out from the molar mass of the structure shown.

In experiment [1] the test system is carbapenemase producing K. pneumoniae. In words: MIC by broth micro-dilution (CLSI), carbapenemase producing K. pneumoniae. In kind it is cell-based, Klebsiella pneumoniae. The following applies: Klebsiella pneumoniae, ATCCBAA1705, KPC-2 K. pneumoniae ATCC BAA-1705; read-out: MIC. (In general: In broth dilution the organism is exposed to a series of concentrations in liquid medium.)

The test system of experiment [2] is extended spectrum β lactamase (ESBL) SHV18 producing Klebsiella pneumoniae. In words: MIC by broth micro-dilution (CLSI), ESBL SHV18 producing K. pneumoniae. In kind it is cell-based. Particulars: Klebsiella pneumoniae, ATCC700603, 22 h, ESBL +ve (SHV-18) K. pneumoniae ATCC700603; read-out: MIC.
In experiment [3] the test system is carbapenem sensitive Pseudomonas aeruginosa. In words: MIC by broth micro-dilution (CLSI), carbapenem sensitive P. aeruginosa. The class given is cell-based. The following applies: Pseudomonas aeruginosa, ATCC27853, Meropenem susceptible P. aeruginosa ATCC27853; read-out: MIC.
For experiment [4], the system named is methicillin-sensitive Staphylococcus aureus. In words: MIC by broth micro-dilution (CLSI), methicillin-sensitive S. aureus. The class given is cell-based. The following applies: Staphylococcus aureus, ATCC 29213 / MSSA, MSSA S. aureus ATCC29213; read-out: MIC.
The subject of experiment [5] is carbapenem sensitive Escherichia coli. In words: MIC by broth micro-dilution (CLSI), carbapenem sensitive E. coli. In kind it is cell-based. Particulars: Escherichia coli, ATCC25922, ESBL −ve E. coli ATCC25922; read-out: MIC.

Consider `C[C@@H](NC(=O)C(F)(F)CO)[C@H]1C(=O)N2C(C(=O)O)=C(S[C@@H]3CN[C@H](C(=O)N(C)C)C3)[C@H](C)[C@H]12` [Example 143], for which the MIC in experiment [1] was 8 µg/mL (≈ 16.3 µM); in experiment [2], 8 µg/mL (≈ 16.3 µM); in experiment [3] it was 32 to 64 µg/mL (≈ 65.2 to 130 µM); in experiment [4], 2 µg/mL (≈ 4.08 µM); in experiment [5], 1 µg/mL (≈ 2.04 µM).

In the case of `C[C@@H](NC(=O)C(F)F)[C@H]1C(=O)N2C(C(=O)O)=C(S[C@@H]3CN[C@H](CN4CCNCC4)C3)[C@H](C)[C@H]12` [Example 145], the minimum inhibitory concentration (MIC) in experiment [1] is 8 µg/mL (≈ 16.4 µM); in experiment [2], 8 to 16 µg/mL (≈ 16.4 to 32.8 µM); in experiment [3], 32 µg/mL (≈ 65.6 µM); in experiment [4], 0.5 µg/mL (≈ 1.03 µM); in experiment [5], 2 µg/mL (≈ 4.1 µM).

Consider `C[C@@H](NC(=O)C(F)F)[C@H]1C(=O)N2C(C(=O)O)=C(S[C@@H]3CN[C@H](C(=O)N4CC[C@H](NC(=O)C(F)(F)CN)C4)C3)[C@H](C)[C@H]12` [Example 147], for which the MIC in experiment [1] was 4 to 8 µg/mL (≈ 6.57 to 13.1 µM); in experiment [2], 2 µg/mL (≈ 3.29 µM); in experiment [3], 64 to 128 µg/mL (≈ 105 to 210 µM); in experiment [4] it was 2 µg/mL (≈ 3.29 µM); in experiment [5] it was 1 µg/mL (≈ 1.64 µM).

Turning to `C[C@@H](NC(=O)C(F)F)[C@H]1C(=O)N2C(C(=O)O)=C(S[C@@H]3CN[C@H](C(=O)N4CC[C@H](ON)C4)C3)[C@H](C)[C@H]12` [Example 148], the MIC in experiment [1] is 2 to 4 µg/mL (≈ 3.86 to 7.73 µM); in experiment [2], 1 µg/mL (≈ 1.93 µM); in experiment [3] it was 32 to 64 µg/mL (≈ 61.8 to 124 µM); in experiment [4], 1 to 2 µg/mL (≈ 1.93 to 3.86 µM); in experiment [5], 0.5 µg/mL (≈ 0.966 µM).

Regarding `CN[C@@H]1CCN(C(=O)[C@@H]2C[C@H](SC3=C(C(=O)O)N4C(=O)[C@H]([C@@H](C)NC(=O)C(F)F)[C@H]4[C@H]3C)CN2)C1` [Example 149], the MIC in experiment [1] was 8 µg/mL (≈ 15.5 µM); in experiment [2] it was 8 µg/mL (≈ 15.5 µM); in experiment [3] it was 4 µg/mL (≈ 7.76 µM); in experiment [4], 2 µg/mL (≈ 3.88 µM); in experiment [5] it was 1 µg/mL (≈ 1.94 µM).

Take `C[C@@H](NC(=O)C(F)F)[C@H]1C(=O)N2C(C(=O)O)=C(S[C@@H]3CN[C@H](CN4CC[C@H](N)C4)C3)[C@H](C)[C@H]12` [Example 150]: the MIC was 16 µg/mL (≈ 32.8 µM) in experiment [1]; 64 µg/mL (≈ 131 µM) in experiment [2]; 64 µg/mL (≈ 131 µM) in experiment [3]; 4 µg/mL (≈ 8.2 µM) in experiment [4]; 4 µg/mL (≈ 8.2 µM) in experiment [5].

With `CNCC(=O)NO[C@H]1CCN(C(=O)[C@@H]2C[C@H](SC3=C(C(=O)O)N4C(=O)[C@H]([C@@H](C)NC(=O)C(F)F)[C@H]4[C@H]3C)CN2)C1` [Example 151], the minimal inhibitory concentration (MIC) in experiment [1] was 8 µg/mL (≈ 13.6 µM); in experiment [2], 16 µg/mL (≈ 27.2 µM); in experiment [3], 32 µg/mL (≈ 54.4 µM); in experiment [4] it was 4 µg/mL (≈ 6.8 µM); in experiment [5] it was 2 µg/mL (≈ 3.4 µM).

Turning to `C[C@@H](NC(=O)C(F)F)[C@H]1C(=O)N2C(C(=O)O)=C(S[C@@H]3CN[C@H](C(=O)N4CC[C@H](NCC(N)=O)C4)C3)[C@H](C)[C@H]12` [Example 153], the MIC in experiment [1] is 8 µg/mL (≈ 14.3 µM); in experiment [2], 2 µg/mL (≈ 3.58 µM); in experiment [3] it was 64 µg/mL (≈ 115 µM); in experiment [4], 8 µg/mL (≈ 14.3 µM); in experiment [5], 1 µg/mL (≈ 1.79 µM).

With `C[C@@H](NC(=O)C(F)F)[C@H]1C(=O)N2C(C(=O)O)=C(S[C@@H]3CN[C@H](C(=O)N4CC[C@@H](NCC(N)=O)C4)C3)[C@H](C)[C@H]12` [Example 154], the MIC stood at 8 µg/mL (≈ 14.3 µM) in experiment [1]; 2 µg/mL (≈ 3.58 µM) in experiment [2]; 64 µg/mL (≈ 115 µM) in experiment [3]; 4 µg/mL (≈ 7.16 µM) in experiment [4]; 1 µg/mL (≈ 1.79 µM) in experiment [5].

In the case of `CNCC(=O)N[C@@H]1CCN(C(=O)[C@@H]2C[C@H](SC3=C(C(=O)O)N4C(=O)[C@H]([C@@H](C)NC(=O)C(F)F)[C@H]4[C@H]3C)CN2)C1` [Example 155], the MIC stood at 8 µg/mL (≈ 14 µM) in experiment [1]; 8 µg/mL (≈ 14 µM) in experiment [2]; 32 µg/mL (≈ 55.9 µM) in experiment [3]; 2 µg/mL (≈ 3.49 µM) in experiment [4]; 1 µg/mL (≈ 1.75 µM) in experiment [5].

In the case of `C[C@@H](NC(=O)C(F)F)[C@H]1C(=O)N2C(C(=O)O)=C(S[C@@H]3CN[C@H](C(=O)N4CCN(C(=N)N)CC4)C3)[C@H](C)[C@H]12` [Example 157], the MIC worked out at 4 µg/mL (≈ 7.36 µM) in experiment [1]; 8 µg/mL (≈ 14.7 µM) in experiment [2]; 4 µg/mL (≈ 7.36 µM) in experiment [3]; 2 µg/mL (≈ 3.68 µM) in experiment [4]; 1 µg/mL (≈ 1.84 µM) in experiment [5].

As for `CNCC(=O)N1CCN(C(=O)[C@@H]2C[C@H](SC3=C(C(=O)O)N4C(=O)[C@H]([C@@H](C)NC(=O)C(F)F)[C@H]4[C@H]3C)CN2)CC1` [Example 158], the minimal inhibitory concentration (MIC) amounted to 4 µg/mL (≈ 6.99 µM) in experiment [1]; 4 µg/mL (≈ 6.99 µM) in experiment [2]; 8 µg/mL (≈ 14 µM) in experiment [3]; 2 µg/mL (≈ 3.49 µM) in experiment [4]; 1 µg/mL (≈ 1.75 µM) in experiment [5].

Take `C[C@@H](NC(=O)C(F)F)[C@H]1C(=O)N2C(C(=O)O)=C(S[C@@H]3CN[C@H](C(=O)N4CCN(C(=O)CN)CC4)C3)[C@H](C)[C@H]12` [Example 159]: the MIC is 4 µg/mL (≈ 7.16 µM) in experiment [1]; 4 µg/mL (≈ 7.16 µM) in experiment [2]; 8 µg/mL (≈ 14.3 µM) in experiment [3]; 2 µg/mL (≈ 3.58 µM) in experiment [4]; 1 µg/mL (≈ 1.79 µM) in experiment [5].

Consider `C[C@@H](NC(=O)C(F)F)[C@H]1C(=O)N2C(C(=O)O)=C(S[C@@H]3CN[C@H](C(=O)N4CC[C@@H](NC(=O)CN)C4)C3)[C@H](C)[C@H]12` [Example 160], for which the MIC in experiment [1] was found to be 8 µg/mL (≈ 14.3 µM); in experiment [2], 8 µg/mL (≈ 14.3 µM); in experiment [3], 16 µg/mL (≈ 28.6 µM); in experiment [4], 4 µg/mL (≈ 7.16 µM); in experiment [5], 1 µg/mL (≈ 1.79 µM).

On to `C[C@@H](NC(=O)C(F)F)[C@H]1C(=O)N2C(C(=O)O)=C(S[C@@H]3CN[C@H](C(=O)N4CCNC[C@@H]4C)C3)[C@H](C)[C@H]12` [Example 161], for which the MIC stood at 4 µg/mL (≈ 7.76 µM) in experiment [1]; 8 µg/mL (≈ 15.5 µM) in experiment [2]; 8 µg/mL (≈ 15.5 µM) in experiment [3]; 0.5 µg/mL (≈ 0.97 µM) in experiment [4]; 0.5 µg/mL (≈ 0.97 µM) in experiment [5].

In the case of `C[C@@H](NC(=O)C(F)F)[C@H]1C(=O)N2C(C(=O)O)=C(S[C@@H]3CN[C@H](C(=O)N4CCCNCC4)C3)[C@H](C)[C@H]12` [Example 162], the MIC in experiment [1] came out at 4 µg/mL (≈ 7.76 µM); in experiment [2], 4 µg/mL (≈ 7.76 µM); in experiment [3] it was 16 µg/mL (≈ 31 µM); in experiment [4], 1 µg/mL (≈ 1.94 µM); in experiment [5] it was 0.5 µg/mL (≈ 0.97 µM).

For `CNCCN(C)C(=O)[C@@H]1C[C@H](SC2=C(C(=O)O)N3C(=O)[C@H]([C@@H](C)NC(=O)C(F)F)[C@H]3[C@H]2C)CN1` [Example 163], the MIC worked out at 4 µg/mL (≈ 7.94 µM) in experiment [1]; 4 µg/mL (≈ 7.94 µM) in experiment [2]; 8 µg/mL (≈ 15.9 µM) in experiment [3]; 1 µg/mL (≈ 1.99 µM) in experiment [4]; 1 µg/mL (≈ 1.99 µM) in experiment [5].

As for `C[C@@H](NC(=O)C(F)F)[C@H]1C(=O)N2C(C(=O)O)=C(S[C@@H]3CN[C@H](C(=O)N4CC[C@@H](ON)C4)C3)[C@H](C)[C@H]12` [Example 164], the MIC was determined as 4 µg/mL (≈ 7.73 µM) in experiment [1]; 1 µg/mL (≈ 1.93 µM) in experiment [2]; 32 µg/mL (≈ 61.8 µM) in experiment [3]; 1 µg/mL (≈ 1.93 µM) in experiment [4]; 0.25 µg/mL (≈ 0.483 µM) in experiment [5].

As to `C[C@@H](NC(=O)CCN)[C@H]1C(=O)N2C(C(=O)O)=C(S[C@@H]3CN[C@H](C(=O)N(C)C)C3)[C@H](C)[C@H]12` [Example 165], the MIC in experiment [1] came to 2 µg/mL (≈ 4.41 µM); in experiment [2], 4 µg/mL (≈ 8.82 µM); in experiment [3], 32 µg/mL (≈ 70.6 µM); in experiment [4], 64 µg/mL (≈ 141 µM); in experiment [5], 2 µg/mL (≈ 4.41 µM).

With `CNCCC(=O)N[C@H](C)[C@H]1C(=O)N2C(C(=O)O)=C(S[C@@H]3CN[C@H](C(=O)N(C)C)C3)[C@H](C)[C@H]12` [Example 166], the MIC is 8 µg/mL (≈ 17.1 µM) in experiment [1]; 8 µg/mL (≈ 17.1 µM) in experiment [2]; 32 µg/mL (≈ 68.4 µM) in experiment [3]; 64 µg/mL (≈ 137 µM) in experiment [4]; 4 µg/mL (≈ 8.55 µM) in experiment [5].
